Source: patent US20050222406A1, “Condensed palatinose in hydrogenated form” (priority 2002, published 2005)

Legend:
[1] = tested on: glucoamylase/maltase (GM) enzyme complex; experiment: Cleavability by small-intestine α-glucosidases, GM complex; type: in vitro ADME, porcine; conditions: 2 hours, 37° C.
Procedure: Mixing was followed by incubation at 37° C.

[2] = tested on: saccharase/isomaltase (SI) enzyme complex; experiment: Cleavability by small-intestine α-glucosidases, SI complex; conditions: 2 hours, 37° C.
Procedure: The saccharase/isomaltase (SI) and glucoamylase/-maltase (GM) enzyme complexes were isolated from porcine small intestine by the method of H. Heymann (Dissertation, Hannover, 1991).
• triethanolamine (TRA) buffer, 0.1 M, pH 7.0 • saccharide, 1% strength solution in TRA buffer • maltose or sucrose, as control substances, 1% strength in TRA buffer • mucosa enzyme, dissolved in TRA buffer Reaction Mixture:
1.2 ml of the carbohydrate solution, at a controlled temperature of 37° C., were admixed with 0.7 U of the saccharase/isomaltose or glucoamylase/maltase enzyme complex, respectively, at t=0. Mixing was followed by incubation at 37° C. The reaction was stopped after 2 hours by heating at 95° C. for 15 minutes. The monosaccharides formed and also the test substances used were assayed by HPAEC.

[3] = Stability in the stomach: rate of hydrolysis at pH 2.0; type: physicochemical; conditions: pH 2.0 (0.01 M HCl), 37° C., 1% solution
Procedure: The stability of a substance on passage through the stomach can be ascertained by determining the rate of hydrolysis at a pH of 2.0, using sucrose and 1-kestose as controls.
Samples were taken from the reaction mixture after 60, 120 and 180 minutes. They were analyzed by means of HPAEC techniques.
Report as hydrolysis rates in %

| hydrolysis by the GM enzyme complex [1] | hydrolysis by the SI enzyme complex [2] | hydrolysis rate ([3]; incubation time 0 min.) [%] | hydrolysis rate ([3]; incubation time 60 min.) [%] | hydrolysis rate ([3]; incubation time 120 min.) [%] | hydrolysis rate ([3]; incubation time 180 min.) [%] | SMILES |
| --- | --- | --- | --- | --- | --- | --- |
| virtually complete hydrolysis | virtually complete hydrolysis | – | – | – | – | OC[C@H]1O[C@H](O[C@H]2[C@H](O)[C@@H](O)C(O)O[C@@H]2CO)[C@H](O)[C@@H](O)[C@@H]1O (mixture of isomers) [Maltose, maltose] |
| – | – | 0 | 11 | 25 | 36 | OC[C@H]1O[C@@](CO)(OC[C@@]2(O[C@H]3O[C@H](CO)[C@@H](O)[C@H](O)[C@H]3O)O[C@H](CO)[C@@H](O)[C@@H]2O)[C@@H](O)[C@@H]1O [1-Kestose, 1-kestose] |
| – | virtually complete hydrolysis | 0 | 2 | 5 | 8 | OC[C@H]1O[C@@](CO)(O[C@H]2O[C@H](CO)[C@@H](O)[C@H](O)[C@H]2O)[C@@H](O)[C@@H]1O [Sucrose, sucrose] |
